Laboratory results published in PubChem BioAssay AID1963852 (Molecular Pharmacology Branch, DTP, NCI, 2024).

Test system: 282377-053-R-J1-PDC complex spheroid viability
Test: Anticancer human tumor 282377-053-R-J1-PDC patient-derived colon adenocarcinoma cell line growth inhibition [POLQ]
Settings: for IC50: curve of first compound; for viability, T/C: stronger effect = lower value; active = viability on the fitted dose curve at most 10% of control; inactive = the rest
Procedure, shortened: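 Complex spheroid viability model combining PDC tumour cells with endothelial (HUVEC) and MSC stromal cells. Novobiocin, ART-558 or RP6685 were tested singly and in combination with standard and investigational anticancer drugs. Each was titrated in half-log steps from near clinical Cmax, or from 10 microM where Cmax was unknown.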

[1] = second compound 0.0316 µM, first compound 0.0316 µM
[2] = second compound 0.0316 µM, first compound 0.1 µM
[3] = second compound 0.0316 µM, first compound 0.316 µM
[4] = second compound 0.0316 µM, first compound 1 µM
[5] = second compound 0.0316 µM, first compound 3.16 µM
[6] = second compound 0.0316 µM, first compound 10 µM
[7] = second compound 0.1 µM, first compound 0.0316 µM
[8] = second compound 0.1 µM, first compound 0.1 µM
[9] = second compound 0.1 µM, first compound 0.316 µM
[10] = second compound 0.1 µM, first compound 1 µM
[11] = second compound 0.1 µM, first compound 3.16 µM
[12] = second compound 0.1 µM, first compound 10 µM
[13] = second compound 0.316 µM, first compound 0.0316 µM
[14] = second compound 0.316 µM, first compound 0.1 µM
[15] = second compound 0.316 µM, first compound 0.316 µM
[16] = second compound 0.316 µM, first compound 1 µM
[17] = second compound 0.316 µM, first compound 3.16 µM
[18] = second compound 0.316 µM, first compound 10 µM
[19] = second compound 1 µM, first compound 0.0316 µM
[20] = second compound 1 µM, first compound 0.1 µM
[21] = second compound 1 µM, first compound 0.316 µM
[22] = second compound 1 µM, first compound 1 µM
[23] = second compound 1 µM, first compound 3.16 µM
[24] = second compound 1 µM, first compound 10 µM
[25] = second compound 3.16 µM, first compound 0.0316 µM
[26] = second compound 3.16 µM, first compound 0.1 µM
[27] = second compound 3.16 µM, first compound 0.316 µM
[28] = second compound 3.16 µM, first compound 1 µM
[29] = second compound 3.16 µM, first compound 3.16 µM
[30] = second compound 3.16 µM, first compound 10 µM
[31] = second compound 10 µM, first compound 0.0316 µM
[32] = second compound 10 µM, first compound 0.1 µM
[33] = second compound 10 µM, first compound 0.316 µM
[34] = second compound 10 µM, first compound 1 µM
[35] = second compound 10 µM, first compound 3.16 µM
[36] = second compound 10 µM, first compound 10 µM
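Also: spheroids exposed to compounds for seven days.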
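For viability, T/C in this document: 100% = DMSO vehicle control viability.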

COc1cc2cc(C(=O)CCC(=O)O)sc2cc1OC + Cc1cccc(N(C)C(=O)C2C(O)CCN2c2nc(C)cc(C(F)(F)F)c2C#N)c1
> 10 µM: IC50 (second compound 0.0316 µM) | IC50 (second compound 0.1 µM) | IC50 (second compound 0.316 µM) | IC50 (second compound 1 µM) | IC50 (second compound 3.16 µM) | IC50 (second compound 10 µM)
inactive: viability, T/C [1] 106% | viability, T/C [2] 112% | viability, T/C [3] 101% | viability, T/C [4] 106% | viability, T/C [5] 109% | viability, T/C [6] 104% | viability, T/C [7] 112% | viability, T/C [8] 107% | viability, T/C [9] 102% | viability, T/C [10] 95.8% | viability, T/C [11] 115% | viability, T/C [12] 89.4% | viability, T/C [13] 119% | viability, T/C [14] 107% | viability, T/C [15] 113% | viability, T/C [16] 97% | viability, T/C [17] 107% | viability, T/C [18] 95.1% | viability, T/C [19] 116% | viability, T/C [20] 103% | viability, T/C [21] 107% | viability, T/C [22] 107% | viability, T/C [23] 103% | viability, T/C [24] 105% | viability, T/C [25] 106% | viability, T/C [26] 106% | viability, T/C [27] 103% | viability, T/C [28] 108% | viability, T/C [29] 113% | viability, T/C [30] 108% | viability, T/C [31] 107% | viability, T/C [32] 112% | viability, T/C [33] 117% | viability, T/C [34] 100% | viability, T/C [35] 122% | viability, T/C [36] 109%

CC(=O)O[C@H]1C(=O)[C@@]2(C)[C@H]([C@H](OC(=O)c3ccccc3)[C@]3(O)C[C@H](OC(=O)[C@H](O)[C@@H](NC(=O)c4ccccc4)c4ccccc4)C(C)=C1C3(C)C)[C@]1(OC(C)=O)CO[C@@H]1C[C@@H]2O + Nc1ccc(C#CCN(C(=O)Cc2ncc(C(F)(F)F)cc2C(F)(F)F)c2ccc(F)cc2)nn1
inactive: viability, T/C (second compound 0.0316 µM, first compound 0.00949 µM) 102% | viability, T/C (second compound 0.0316 µM, first compound 0.03 µM) 50.7% | viability, T/C (second compound 0.0316 µM, first compound 0.0949 µM) 47.4% | viability, T/C (second compound 0.0316 µM, first compound 0.3 µM) 46.9% | viability, T/C (second compound 0.0316 µM, first compound 0.949 µM) 51.2% | viability, T/C (second compound 0.0316 µM, first compound 3 µM) 65.8% | viability, T/C (second compound 0.1 µM, first compound 0.00949 µM) 102% | viability, T/C (second compound 0.1 µM, first compound 0.03 µM) 65.9% | viability, T/C (second compound 0.1 µM, first compound 0.0949 µM) 50.4% | viability, T/C (second compound 0.1 µM, first compound 0.3 µM) 46.5% | viability, T/C (second compound 0.1 µM, first compound 0.949 µM) 53.8% | viability, T/C (second compound 0.1 µM, first compound 3 µM) 64.9% | viability, T/C (second compound 0.316 µM, first compound 0.00949 µM) 100% | viability, T/C (second compound 0.316 µM, first compound 0.03 µM) 47.7% | viability, T/C (second compound 0.316 µM, first compound 0.0949 µM) 49.7% | viability, T/C (second compound 0.316 µM, first compound 0.3 µM) 50.1% | viability, T/C (second compound 0.316 µM, first compound 0.949 µM) 47.2% | viability, T/C (second compound 0.316 µM, first compound 3 µM) 65.2% | viability, T/C (second compound 1 µM, first compound 0.00949 µM) 99.1% | viability, T/C (second compound 1 µM, first compound 0.03 µM) 57.4% | viability, T/C (second compound 1 µM, first compound 0.0949 µM) 44.2% | viability, T/C (second compound 1 µM, first compound 0.3 µM) 53.3% | viability, T/C (second compound 1 µM, first compound 0.949 µM) 57.3% | viability, T/C (second compound 1 µM, first compound 3 µM) 57.7% | viability, T/C (second compound 3.16 µM, first compound 0.00949 µM) 87.8% | viability, T/C (second compound 3.16 µM, first compound 0.03 µM) 52.8% | viability, T/C (second compound 3.16 µM, first compound 0.0949 µM) 42.3% | viability, T/C (second compound 3.16 µM, first compound 0.3 µM) 49.7% | viability, T/C (second compound 3.16 µM, first compound 0.949 µM) 45.8% | viability, T/C (second compound 3.16 µM, first compound 3 µM) 60.8% | viability, T/C (second compound 10 µM, first compound 0.00949 µM) 106% | viability, T/C (second compound 10 µM, first compound 0.03 µM) 58.8% | viability, T/C (second compound 10 µM, first compound 0.0949 µM) 49.7% | viability, T/C (second compound 10 µM, first compound 0.3 µM) 50.9% | viability, T/C (second compound 10 µM, first compound 0.949 µM) 60.9% | viability, T/C (second compound 10 µM, first compound 3 µM) 77.6%
3 µM: IC50 (second compound 0.316 µM)
> 3 µM: IC50 (second compound 0.0316 µM) | IC50 (second compound 0.1 µM) | IC50 (second compound 1 µM) | IC50 (second compound 10 µM)
0.0918 µM: IC50 (second compound 3.16 µM)

COc1cccc2c1C(=O)c1c(O)c3c(c(O)c1C2=O)CC(O)(C(=O)CO)CC3OC1CC(N)C(O)C(C)O1 (stereo unspecified) + Nc1ccc(C#CCN(C(=O)Cc2ncc(C(F)(F)F)cc2C(F)(F)F)c2ccc(F)cc2)nn1
1.83 µM: IC50 (second compound 3.16 µM)
1.96 µM: IC50 (second compound 0.0316 µM)
active: viability, T/C [6] 3% | viability, T/C [12] 2.63% | viability, T/C [18] 3.07% | viability, T/C [24] 4.26% | viability, T/C [29] 8.6% | viability, T/C [30] 3.58% | viability, T/C [35] 6.84% | viability, T/C [36] 3.41%
inactive: viability, T/C [1] 99.2% | viability, T/C [2] 98.9% | viability, T/C [3] 123% | viability, T/C [4] 94.6% | viability, T/C [5] 17.8% | viability, T/C [7] 107% | viability, T/C [8] 108% | viability, T/C [9] 110% | viability, T/C [10] 110% | viability, T/C [11] 17.6% | viability, T/C [13] 92.8% | viability, T/C [14] 108% | viability, T/C [15] 130% | viability, T/C [16] 103% | viability, T/C [17] 15.8% | viability, T/C [19] 94.2% | viability, T/C [20] 120% | viability, T/C [21] 128% | viability, T/C [22] 100% | viability, T/C [23] 10.8% | viability, T/C [25] 104% | viability, T/C [26] 108% | viability, T/C [27] 123% | viability, T/C [28] 96% | viability, T/C [31] 119% | viability, T/C [32] 142% | viability, T/C [33] 127% | viability, T/C [34] 105%
1.91 µM: IC50 (second compound 1 µM) | IC50 (second compound 10 µM)
2.02 µM: IC50 (second compound 0.316 µM)
2.1 µM: IC50 (second compound 0.1 µM)
